Assay results as given in patent publication US10174038B2, “Compounds and methods for antiviral treatment” (Gilead Sciences, Inc., priority 2012, dated 2019).

System: RSV strain A2
Assay: RSV antiviral activity, in vitro cytoprotection assay in Hep2 cells
Format: cell-based, Respiratory Syncytial Virus (RSV)
Conditions: human respiratory syncytial virus, HEp-2; 0.5 μM compound; RSV-induced cytopathic effect in Hep2 cells; % inhibition calculated from fitted 4-parameter dose response curve, normalized to 0% and 100%; read-out: Percent inhibition at 0.5 μM

Row | SMILES | inhibition at 0.5 µM [%]
1 | CS(=O)(=O)Nc1ccc(Cl)cc1C(=O)N1CCCC[C@H]1c1cc2ccc(N3CCC3)nn2c1 [Compound 111] | 56
2 | Cc1ccc(NS(C)(=O)=O)c(C(=O)N2CCCC[C@H]2c2nc3c(C)cc(C)nc3[nH]2)c1 [Compound 112] | 5
3 | Cc1cc(C)n2nc(C3CCCCN3C(=O)c3cc(Cl)ccc3NS(C)(=O)=O)nc2n1 (centres unmarked) [Compound 113] | 16
4 | Cc1cc(NS(C)(=O)=O)c(C(=O)N2CCCC[C@H]2c2cn3nc(N4CC[C@H](N)C4)c(C)cc3n2)s1 [Compound 114] | 100
5 | Cc1ccc(NS(C)(=O)=O)c(C(=O)N2CCCC[C@H]2c2cn3nc(N4CC[C@H](N)C4)c(C)cc3n2)c1 [Compound 115] | 100
6 | Cc1cc2nc([C@@H]3CCCCN3C(=O)C(NS(C)(=O)=O)c3ccccc3Br)cn2nc1N1CC[C@H](N)C1 (some centres unmarked) [Compound 116] | 100
7 | CS(=O)(=O)Nc1ccc(Cl)cc1C(=O)N1CCCC[C@H]1c1cn2nc(N3CC[C@H](N)C3)ccc2n1 [Compound 117] | 100
8 | CS(=O)(=O)Nc1ccc(Cl)cc1C(=O)N1CCCC[C@H]1c1cn2nc(N3C[C@@H](C#N)[C@@H](O)C3)ccc2n1 [Compound 118] | 100
9 | Cc1cccc(C(=O)N2CCCC[C@H]2c2cn3nc(N4CC[C@H](N)C4)ccc3n2)n1 [Compound 119] | 83
10 | CS(=O)(=O)Nc1ccc(Cl)cc1C(=O)N1CCCC[C@H]1c1cn2nc(N3CC(O)C3)ccc2n1 [Compound 120] | 100
11 | Cc1ccc(Cl)cc1C(=O)N1CCCC[C@H]1c1cn2nc(N3CC[C@H](N)C3)ccc2n1 [Compound 121] | 100
